In US20070021508A1, “Method for treatment of Helicobacter pylori infection and/or an associated disease” (priority 2005, published 2007):
In brackets after ≈: the same amount, converted by molar mass.

Columns and labels:
HP 43504 [1] = experiment: Disc diffusion assay against HP for various compounds, HP 43504; format: cell-based, Helicobacter pylori; conditions: for Disc diffusion diameter: 40 μl on 8 mm disc, 48 hours; for anti-HP activity compared to other compounds: HP 43504 lawn, disc diffusion
HP 238 [2] = experiment: Disc diffusion assay against HP for various compounds, HP 238; format: cell-based, Helicobacter pylori; conditions: for Disc diffusion diameter: 40 μl on 8 mm disc, 48 hours; for anti-HP activity compared to other compounds: HP 238 lawn, disc diffusion
[3] = ornithine transcarbamylase-deficient patients, median dose 352 mg/kg/day, 26-month follow-up; cited from earlier work
[4] = tested on: H. pylori ATCC43504 (HP 43504); experiment: Minimum inhibitory concentration (MIC) against HP 43504; format: cell-based; conditions: Helicobacter pylori
Procedure: (§1) The HP strains used in the present studies are H. pylori ATCC43504 (HP 43504) and HP 238. HP 238 was isolated from a patient with MALToma in National Cheng Kung University Hospital, Tainan, Taiwan, and used as an antibiotic sensitive control. These strains were cultured under a microaerophilic condition (O2 5%, CO2 10%, N2 85%) in a 37° C. chamber.

HP 238 [5] = experiment: Disc diffusion assay against HP for PB plus various antibiotics, HP 238; format: cell-based, Helicobacter pylori; conditions: HP 238, CDC agar, 8 mm disc, 48 hours; AMO 0.015 μg/20 μl, MTZ 5 μg/20 μl, TC 0.5 μg/20 μl, plus 20 μl water or 4-PB 2 mg/20 μl
Procedure: HP 43504 and HP 2378 were further used for testing PB in combination with various antibiotics in disc diffusion assays. After 2 days' pre-culture in a microaerophilic condition (O2 5%, CO2 10%, N2 85%) at 37° C., HP was suspended in a Brucella broth containing 5% sucrose to adjust its clone density at 1×10^8 CFU/ml. Then 100 μl of the bacterial suspension was inoculated onto a CDC agar plate. […] The agar plates were later transferred to a microaerobic jar to incubate at 37° C. The diameter of each inhibition zone (clear zone size) in the bacterial lawn was measured 48 hours later. […]

HP 43504 [6] = experiment: Disc diffusion assay against HP for PB plus various antibiotics, HP 43504; format: cell-based, Helicobacter pylori; conditions: HP 43504, CDC agar, 8 mm disc, 48 hours; AMO 0.015 μg/20 μl, MTZ 5 μg/20 μl, TC 0.5 μg/20 μl, plus 20 μl water or 4-PB 2 mg/20 μl
Procedure: HP 43504 and […] were further used for testing PB in combination with various antibiotics in disc diffusion assays. After 2 days' pre-culture in a microaerophilic condition (O2 5%, CO2 10%, N2 85%) at 37° C., HP was suspended in a Brucella broth containing 5% sucrose to adjust its clone density at 1×10^8 CFU/ml. Then 100 μl of the bacterial suspension was inoculated onto a CDC agar plate. […] The agar plates were later transferred to a microaerobic jar to incubate at 37° C. The diameter of each inhibition zone (clear zone size) in the bacterial lawn was measured 48 hours later. The tested combinations used in this experiment comprised 4-PB (50 mg/ml) with amoxicillin (AMO), metronidazole (MTZ) or tetracycline (TC).

HP 238 [7] = experiment: Minimum inhibitory concentration (MIC) against HP 238; format: cell-based; conditions: Helicobacter pylori; against clinically isolated strain HP 238
Procedure: as §1

[8] = HP 43504, Brucella agar, 50 mg/ml
[9] = HP 43504, Brucella agar, 100 mg/ml
[10] = HP 238, Brucella agar, 50 mg/ml
[11] = HP 238, Brucella agar, 100 mg/ml
[12] = HP 43504, 100 mg/ml, no clear zone outside the paper disc
[13] = HP 238, 100 mg/ml, no clear zone outside the paper disc

Row | Molecule | Disc diffusion diameter (HP 43504 [1]; [9]) | Disc diffusion diameter (HP 43504 [1]; HP 43504, CDC agar, 50 mg/ml) | Disc diffusion diameter (HP 238 [2]; [11]) | Disc diffusion diameter (HP 238 [2]; HP 238, CDC agar, 50 mg/ml) | anti-HP activity (HP 43504 [1]; [12]) | Disc diffusion diameter (HP 43504 [1]; HP 43504, CDC agar, 100 mg/ml) | anti-HP activity (HP 238 [2]; [13]) | Disc diffusion diameter (HP 238 [2]; HP 238, CDC agar, 100 mg/ml) | MIC [4] | diameter of inhibition zone (clear zone size) (HP 238 [5]) | diameter of inhibition zone (clear zone size) (HP 43504 [6]) | also measured
1 | 4-phenylbutyrate [4-PB] | 45 mm | 17 mm | 64 mm | 23 mm |  |  |  |  |  |  |  | Disc diffusion diameter (HP 43504 [1]; HP 43504, Brucella agar, 5 mg/ml): 8 mm; Disc diffusion diameter (HP 43504 [1]; HP 43504, Brucella agar, 25 mg/ml): 8 mm; Disc diffusion diameter (HP 43504 [1]; [8]): 33 mm; Disc diffusion diameter (HP 43504 [1]; HP 43504, CDC agar, 5 mg/ml): 8 mm; Disc diffusion diameter (HP 43504 [1]; HP 43504, CDC agar, 25 mg/ml): 8 mm; anti-HP activity compared to other compounds (HP 43504 [1]): much better anti-HP activity; Disc diffusion diameter (HP 238 [2]; HP 238, Brucella agar, 5 mg/ml): 8 mm; Disc diffusion diameter (HP 238 [2]; HP 238, Brucella agar, 25 mg/ml): 26 mm; Disc diffusion diameter (HP 238 [2]; [10]): 40 mm; Disc diffusion diameter (HP 238 [2]; HP 238, CDC agar, 5 mg/ml): 8 mm; Disc diffusion diameter (HP 238 [2]; HP 238, CDC agar, 25 mg/ml): 9 mm; anti-HP activity compared to other compounds (HP 238 [2]): much better anti-HP activity; side effects related to therapy [3]: neither hyperammonemic episodes requiring hospitalization nor side effects related to therapy occurred
2 | NCCC(N)C(=O)O (centres unmarked) [2,4-DAB, 2,4-diaminobutyric acid] | 8 mm |  | 8 mm |  | no obvious anti-HP activity | 8 mm | no obvious anti-HP activity | 8 mm |  |  |  | 
3 | CCC(N)C(=O)O (centres unmarked) [2-AB, 2-aminobutyric acid] | 8 mm |  | 8 mm |  | no obvious anti-HP activity | 8 mm | no obvious anti-HP activity | 8 mm |  |  |  | 
4 | CCC(C(=O)O)c1ccccc1 (centres unmarked) [2-PB, 2-phenylbutyrate] |  | 8 mm |  | 14 mm |  |  |  |  |  |  |  | Disc diffusion diameter (HP 43504 [1]; [8]): 18 mm; anti-HP activity compared to other compounds (HP 43504 [1]): much better anti-HP activity; Disc diffusion diameter (HP 238 [2]; [10]): 24 mm; anti-HP activity compared to other compounds (HP 238 [2]): much better anti-HP activity
5 | CCCC(=O)[O-].[Na+] [Butyrate, Sodium butyrate] |  | 8 mm |  | 11 mm |  |  |  |  |  |  |  | disc diffusion capacity (HP 43504 [1]; HP 43504, compared with 4-PB or 2-PB): much smaller than 4-PB or 2-PB; disc diffusion capacity (HP 238 [2]; HP 238, compared with 4-PB or 2-PB): much smaller than 4-PB or 2-PB
6 | NCCCC(=O)O [GABA, gama-aminobutyric acid] | 8 mm |  | 8 mm |  | no obvious anti-HP activity | 8 mm | no obvious anti-HP activity | 8 mm |  |  |  | 
7 | CCCC(CCC)C(=O)[O-].[Na+] [Valproate, sodium valproate] |  |  |  |  |  |  |  |  |  |  |  | anti-HP activity (HP 43504 [1]; HP 43504, 2 mg/ml to 16 mg/ml): no obvious anti-HP activity; Disc diffusion diameter (HP 43504 [1]; HP 43504, CDC agar, 2 mg/ml): 8 mm; Disc diffusion diameter (HP 43504 [1]; HP 43504, CDC agar, 4 mg/ml): 8 mm; Disc diffusion diameter (HP 43504 [1]; HP 43504, CDC agar, 8 mg/ml): 8 mm; Disc diffusion diameter (HP 43504 [1]; HP 43504, CDC agar, 16 mg/ml): 8 mm; anti-HP activity (HP 238 [2]; HP 238, 2 mg/ml to 16 mg/ml): no obvious anti-HP activity; Disc diffusion diameter (HP 238 [2]; HP 238, CDC agar, 2 mg/ml): 8 mm; Disc diffusion diameter (HP 238 [2]; HP 238, CDC agar, 4 mg/ml): 8 mm; Disc diffusion diameter (HP 238 [2]; HP 238, CDC agar, 8 mg/ml): 8 mm; Disc diffusion diameter (HP 238 [2]; HP 238, CDC agar, 16 mg/ml): 8 mm
8 | CC1(C)S[C@@H]2[C@H](NC(=O)[C@H](N)c3ccc(O)cc3)C(=O)N2[C@H]1C(=O)O [amoxicillin] |  |  |  |  |  |  |  |  | 0.12 µg/mL (≈ 0.328 µM) | 8 mm | 8 mm | 
9 | Cc1ncc([N+](=O)[O-])n1CCO [metronidazole] |  |  |  |  |  |  |  |  | 256 µg/mL (≈ 1500 µM) | 16 mm | 8 mm | MIC (HP 238 [7]): 0.25 µg/mL (≈ 1.46 µM)
10 | CN(C)[C@@H]1C(O)=C(C(N)=O)C(=O)[C@@]2(O)C(O)=C3C(=O)c4c(O)cccc4[C@@](C)(O)[C@H]3C[C@@H]12 [tetracycline] |  |  |  |  |  |  |  |  | 1 µg/mL (≈ 2.25 µM) | 15 mm | 8 mm | 
